From patent publication US20250170212A1, “COMPOSITIONS AND METHODS OF TREATING AMYOTROPHIC LATERAL SCLEROSIS (ALS) AND RELATED DISORDERS” (BIOINCEPT, LLC, priority 2022, published 2025)

Test system: IL-1α
Assay: Serum cytokine analysis, multiplex ELISA
Format: in vivo, mouse
Details: serum collected weekly; compared to Injury and mGRPs groups
Protocol: Samples were collected every week, starting from day of graft transplantation (day 0), 100 μl of blood from mouse tail. Blood was stored 1 h in room temperature, and overnight in +4° C. Serum was gently aspirated, and centrifuged 10 min with 2000 RPM to separate blood morphotic bodies. Purified serum was stored in −80° C. until further analysis. Multiplex ELISA 23-cytokine kit (M60009RDPD) was obtained from Bio-Rad (Bio-Plex Pro Mouse Cytokine 23-plex Assay #M60009RDPD, Hercules, Bio-Rad, CA, USA, RRID: AB_2857368) and performed according to instructions. 50 μl of diluted in sample diluent, 1:4 serum samples and diluted at range 1:10-1:20. Measurement standards were used, diluted 9 times according to the protocol and added at template plate. Vortexed beads were added to the assay 96-well plate. Plate was again washed 3 times with wash buffer, then from template plate, 50 μl of samples, standards and blank were transferred to measurement plate with multichannel pipette. Plate was sealed with tape and incubated 30 min. After this time, plate was washed 3 times. 25 μl of detection antibody was added to the wells with multichannel pipette. Plate was sealed and incubated for 30 min. and next washed 3 times using wash buffer. […] Beads were resuspended with 125 μl of assay buffer and analysis was performed with Bio Plex 200 reader.
All quantifications were performed including the manual cell counts in a blinded manner. The NeuN and Ibal were counted as positive cells in the ROI (see above) as previously reported. The number of cells was determined by unbiased counting of positive cells. […] Differences between groups were analyzed using a repeated measure ANOVA model with a fixed effect for the group, of the time and a random intercept for the mouse. In a second, more explorative, approach for each group the time when the physical activity was first measured below a certain threshold was determined. […] The clinically relevant threshold was determined according to previous observations and defined as value 0.9 for the Wire Test. […] The statistical significance at p<0.05 was then determined.

## C=CC[C@@H]1/C=C(\C)C[C@H](C)C[C@H](OC)[C@H]2O[C@@](O)(C(=O)C(=O)N3CCCC[C@H]3C(=O)O[C@H](/C(C)=C/[C@@H]3CC[C@@H](O)[C@H](OC)C3)[C@H](C)[C@@H](O)CC1=O)[C@H](C)C[C@@H]2OC [Tac, Tacrolimus, reference compound]
  peripheral IL-1α cytokine peak: decreased IL-1α peak significantly
